Results published in ChEMBL document CHEMBL5252550, “DYRK1A kinase inhibition with emphasis on neurodegeneration: A comprehensive evolution story-cum-perspective” (Eur J Med Chem, 2018).

Key:
[1] = molecular target: Dual specificity tyrosine-phosphorylation-regulated kinase 1B (Homo sapiens, UniProt Q9Y463); experiment: Inhibition of DYRK1B (unknown origin)
[2] = molecular target: T1, Dual specificity tyrosine-phosphorylation-regulated kinase 1A (Homo sapiens, UniProt Q13627); experiment: Inhibition of DYRK1A (unknown origin) autophosphorylation
[3] = molecular target: T1, Dual specificity tyrosine-phosphorylation-regulated kinase 1A; experiment: Inhibition of DYRK1A (unknown origin)
[4] = test system: CCN1/C(=C/C(C)=O)Sc2ccc(O)cc21; experiment: Competitive inhibition of DYRK1A (unknown origin) assessed as michaelis-constant (Km); conditions: Homo sapiens
[5] = molecular target: T1, Dual specificity tyrosine-phosphorylation-regulated kinase 1A; experiment: Binding affinity to DYRK1A (unknown origin) assessed as inhibition constant
[6] = molecular target: T2, Dual specificity tyrosine-phosphorylation-regulated kinase 2 (Homo sapiens) (UniProt Q92630); experiment: Inhibition of DYRK2 (unknown origin) at 10 uM relative to control
T2 sequence (whole entry): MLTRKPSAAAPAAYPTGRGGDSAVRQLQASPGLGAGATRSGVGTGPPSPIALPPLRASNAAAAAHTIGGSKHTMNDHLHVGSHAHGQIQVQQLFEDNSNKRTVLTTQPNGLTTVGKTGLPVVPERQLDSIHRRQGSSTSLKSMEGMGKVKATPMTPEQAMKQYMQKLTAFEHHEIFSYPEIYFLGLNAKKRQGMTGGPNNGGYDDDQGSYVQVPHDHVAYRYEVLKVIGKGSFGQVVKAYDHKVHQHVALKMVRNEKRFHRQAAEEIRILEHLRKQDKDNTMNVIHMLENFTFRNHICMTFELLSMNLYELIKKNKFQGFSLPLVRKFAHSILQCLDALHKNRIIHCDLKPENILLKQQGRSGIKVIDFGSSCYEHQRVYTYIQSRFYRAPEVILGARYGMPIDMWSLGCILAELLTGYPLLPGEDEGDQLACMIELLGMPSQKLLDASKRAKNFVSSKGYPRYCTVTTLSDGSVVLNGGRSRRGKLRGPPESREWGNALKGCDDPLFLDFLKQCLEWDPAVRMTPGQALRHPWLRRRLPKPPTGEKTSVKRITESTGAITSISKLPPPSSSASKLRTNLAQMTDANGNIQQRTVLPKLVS

[7] = molecular target: T3, Dual specificity tyrosine-phosphorylation-regulated kinase 3 (Homo sapiens) (UniProt O43781); experiment: Inhibition of DYRK3 (unknown origin) at 10 uM relative to control
T3 sequence (whole entry): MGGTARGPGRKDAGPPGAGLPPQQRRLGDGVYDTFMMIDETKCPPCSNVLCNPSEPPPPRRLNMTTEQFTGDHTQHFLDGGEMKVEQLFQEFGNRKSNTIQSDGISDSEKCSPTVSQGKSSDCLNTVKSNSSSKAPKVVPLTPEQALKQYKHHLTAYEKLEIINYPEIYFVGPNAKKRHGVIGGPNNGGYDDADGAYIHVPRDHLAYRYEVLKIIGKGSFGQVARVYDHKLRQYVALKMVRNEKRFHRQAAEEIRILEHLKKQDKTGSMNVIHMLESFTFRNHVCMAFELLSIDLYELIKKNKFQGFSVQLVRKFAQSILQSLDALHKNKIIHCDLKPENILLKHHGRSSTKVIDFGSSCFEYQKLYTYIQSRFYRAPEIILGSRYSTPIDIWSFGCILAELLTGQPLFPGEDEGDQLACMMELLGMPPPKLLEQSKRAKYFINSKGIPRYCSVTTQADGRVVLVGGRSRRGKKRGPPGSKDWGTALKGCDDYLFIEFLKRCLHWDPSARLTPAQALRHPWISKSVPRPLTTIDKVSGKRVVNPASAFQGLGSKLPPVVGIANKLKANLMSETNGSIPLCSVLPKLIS

[8] = molecular target: T1, Dual specificity tyrosine-phosphorylation-regulated kinase 1A; experiment: Inhibition of DYRK1A (unknown origin) in presence of ATP
[9] = molecular target: T4, Dual specificity tyrosine-phosphorylation-regulated kinase 2 (Homo sapiens, UniProt Q92630); experiment: Inhibition of DYRK2 (unknown origin)
T4 sequence (Q92630 whole entry): T2 sequence (whole entry)

Acetylcholinesterase = Acetylcholinesterase (Homo sapiens, UniProt P22303); experiment: Inhibition of AChE (unknown origin)
Chain of Acetylcholinesterase (P22303 whole entry): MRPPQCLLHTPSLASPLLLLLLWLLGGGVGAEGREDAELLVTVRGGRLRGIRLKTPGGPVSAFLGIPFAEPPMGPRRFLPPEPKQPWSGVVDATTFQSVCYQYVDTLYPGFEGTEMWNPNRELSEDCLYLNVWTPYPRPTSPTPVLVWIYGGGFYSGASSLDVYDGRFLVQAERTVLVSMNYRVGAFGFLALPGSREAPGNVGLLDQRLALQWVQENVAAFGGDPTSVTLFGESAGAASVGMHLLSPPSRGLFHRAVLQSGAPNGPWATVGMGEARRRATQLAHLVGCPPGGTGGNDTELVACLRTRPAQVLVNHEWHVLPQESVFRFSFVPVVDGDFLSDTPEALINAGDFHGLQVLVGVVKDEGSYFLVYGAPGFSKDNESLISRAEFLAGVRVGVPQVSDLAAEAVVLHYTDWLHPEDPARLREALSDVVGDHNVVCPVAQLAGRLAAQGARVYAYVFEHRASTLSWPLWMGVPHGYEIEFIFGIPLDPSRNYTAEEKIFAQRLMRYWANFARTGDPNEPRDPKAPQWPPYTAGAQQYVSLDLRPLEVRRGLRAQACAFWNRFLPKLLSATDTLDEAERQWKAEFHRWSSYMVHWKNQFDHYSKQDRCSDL

Chain of Dual specificity tyrosine-phosphorylation-regulated kinase 1B (Q9Y463 whole entry): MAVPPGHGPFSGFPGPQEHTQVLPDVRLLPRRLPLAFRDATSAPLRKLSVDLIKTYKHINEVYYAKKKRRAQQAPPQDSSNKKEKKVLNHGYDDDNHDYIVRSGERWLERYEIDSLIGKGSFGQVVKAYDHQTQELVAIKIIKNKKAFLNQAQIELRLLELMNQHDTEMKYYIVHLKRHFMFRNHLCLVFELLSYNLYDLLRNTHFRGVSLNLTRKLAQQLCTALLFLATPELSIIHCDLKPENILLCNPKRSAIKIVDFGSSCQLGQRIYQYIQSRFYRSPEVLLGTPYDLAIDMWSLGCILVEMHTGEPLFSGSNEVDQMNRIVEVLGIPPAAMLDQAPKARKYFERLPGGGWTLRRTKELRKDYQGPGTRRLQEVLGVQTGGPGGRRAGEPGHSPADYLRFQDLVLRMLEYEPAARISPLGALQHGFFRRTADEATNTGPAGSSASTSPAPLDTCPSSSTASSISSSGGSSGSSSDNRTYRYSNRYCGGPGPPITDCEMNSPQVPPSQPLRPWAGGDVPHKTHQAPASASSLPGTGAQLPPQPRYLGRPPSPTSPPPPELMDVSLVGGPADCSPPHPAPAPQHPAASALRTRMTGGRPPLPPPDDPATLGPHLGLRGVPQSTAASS

For `COC(=N)c1nc2ccc3ncnc(Nc4ccc(Cl)cc4Cl)c3c2s1`, the IC50 [1] was 280 nM.
Compound `COc1cccc(NC(=O)Nc2nnc(-c3ccncc3)s2)c1` has an IC50 [2] of 2500 nM.
With `CCC(=O)O[C@@H](C/C=C(\C)C(=O)OC)[C@H](C(=O)OC)[C@@H](OC(C)=O)[C@@H](C[C@H](C)[C@H](OC(=O)CC(C)C)[C@@H]1C[C@H](C)C[C@]2(C[C@H](C)C[C@@](O)(CC(C)=O)O2)O1)OC(=O)CC(C)C` the IC50 [3] was greater than 10000 nM.
`CCOc1cc(/C=C2\SC(=S)NC2=O)ccc1OC` gave an IC50 [3] of 60.2 nM.
`CCC(=O)O[C@@H](C/C=C(\C)C(=O)OC)[C@H](C(=O)OC)[C@@H](OC(C)=O)[C@@H](C[C@H](C)[C@H](OC(=O)CC(C)C)[C@@H]1C[C@H](C)C[C@]2(C[C@H](C)C[C@](CC(C)=O)(OC(C)=O)O2)O1)OC(=O)CC(C)C` gave an IC50 [3] greater than 10000 nM.
“Dual specificity tyrosine-phosphorylation-regulated kinase 1A (Homo sapiens) (from UniProt Q13627)” showed a Km [4] of 37 µM.
For `O=C1c2ccc(O)c(O)c2C(=O)c2c(O)ccc(O)c21` [QUINALIZARIN], the Ki [5] was 5850 nM.
For `N=C1NC(=O)/C(=C/c2ccc3c(c2)CCO3)S1`, the IC50 [3] was 7.9 nM.
In the case of `CCN1/C(=C/C(C)=O)Sc2ccc(O)cc21`, the inhibition [6] is reported as greater than 90% and the inhibition [7] is reported as greater than 90%.
With `CN1CCc2cc3c(c4c2C1Cc1ccccc1-4)OCO3` (stereo not drawn) [ROEMERINE] the IC50 [3] was 15000 nM.
`Cc1cc(=O)oc2cc3cc(O)ccc3cc12` was tested, and the IC50 [8] was 600 nM.
`COc1cc(/C=C2\C(=O)NN(c3ccc(Cl)c(Cl)c3)C2=O)ccc1O` gave an IC50 [2] of 50000 nM.
Compound `COc1ccc2c(c1)[nH]c1c(C)nccc12` [HARMINE] has an IC50 [9] of 1900 nM and an IC50 (Acetylcholinesterase) of 11300 nM.
For `COC(=N)c1nc2ccc3ncnc(Nc4ccc(Br)cc4F)c3c2s1`, the IC50 [1] was 220 nM.
Compound `CO[C@H]1[C@H](O)[C@@H](O)[C@H](n2c3c(Cl)cccc3c3c4c(c5c6cccc(Cl)c6[nH]c5c32)C(=O)NC4=O)O[C@@H]1CO` [REBECCAMYCIN] has an IC50 [3] of 19 nM.
In the case of `Cc1cc(=O)oc2cc3c([N+](=O)[O-])c(O)ccc3cc12`, the IC50 [8] is reported as 15000 nM.
